Patent US9850283B2, “Macrocyclic inhibitors of the PD-1/PD-L1 and CD80(B7-1)/PD-L1 protein/protein interactions” (BRISTOL-MYERS SQUIBB COMPANY, priority 2013, dated 2017)
Read-outs that look alike come from different tables or passages of the source. Starred links: 1 amine or outer side, 2 acyl side, 3 side chain; linkers in the order of their positions; H or OH if unused. Positions of bridges follow the written chain, without caps; N, C: chain ends. Non-standard residues stand in square brackets, D forms with d. Residues, ends and D or L forms follow the SMILES beside them. ξ: configuration not given here. X7 = COc1ccc(-c2[nH]c3ccccc3c2C[C@H](N[*:1])C(=O)[*:2])cc1; Pro(trans-4-Ph) = O=C(O)[C@@H]1C[C@@H](c2ccccc2)CN1; Phe(4-CF3) = N[C@@H](Cc1ccc(C(F)(F)F)cc1)C(=O)O; Trp(5-OH) = N[C@@H](Cc1c[nH]c2ccc(O)cc12)C(=O)O; Phe(3-CN) = N#Cc1cccc(C[C@H](N)C(=O)O)c1; Phe(4-Cl) = N[C@@H](Cc1ccc(Cl)cc1)C(=O)O; Bta = N[C@@H](Cc1csc2ccccc12)C(=O)O; Hyp = O=C(O)[C@@H]1C[C@@H](O)CN1; NMeF = CN[C@@H](Cc1ccccc1)C(=O)O; dHyp = O=C(O)[C@H]1C[C@H](O)CN1; NMeNle = CCCC[C@H](NC)C(=O)O; ξR = N=C(N)NCCCC(N)C(=O)O; NMeA = CN[C@@H](C)C(=O)O; Orn = NCCC[C@H](N)C(=O)O; Dab = NCC[C@H](N)C(=O)O; Dap = NC[C@H](N)C(=O)O; Sar = CNCC(=O)O

Assays:
[1] = target: T1, LK35.2-hPD-L1 cells / PE-labeled PD-1-Ig (Homo sapiens, UniProt Q9NZQ7); test: LK35.2-hPD-L1 cell binding high-content screening assay; type: cell-based
T1 construct: expressed in transfected cells; host or cells: LK35.2 mouse B cell line
T1 sequence (Q9NZQ7 19-290): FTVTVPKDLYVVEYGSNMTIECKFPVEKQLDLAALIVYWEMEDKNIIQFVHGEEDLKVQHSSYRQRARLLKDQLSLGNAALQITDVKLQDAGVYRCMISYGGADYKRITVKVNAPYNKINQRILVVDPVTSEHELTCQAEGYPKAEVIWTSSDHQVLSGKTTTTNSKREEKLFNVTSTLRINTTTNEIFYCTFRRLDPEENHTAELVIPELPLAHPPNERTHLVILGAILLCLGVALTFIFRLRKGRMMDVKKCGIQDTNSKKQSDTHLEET
Procedure, shortened: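 Mouse LK35.2 B cells stably over-expressing human PD-L1, cultured overnight, treated with compound plus PE-labeled human PD-1-Ig (1 nM final) in RPMI/10% FCS for 1 h at 37 °C. After washing, bound fluorescence quantified by high-content imaging.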

Human PD-L1/PD-1 = target: T2, Human PD-L1/PD-1 (Homo sapiens, UniProt Q9NZQ7); test: HTRF PD-1-Ig/PD-L1-His binding assay (human PD-L1)
T2 construct: made in house; host or cells: HEK293T
T2 sequence (Q9NZQ7 with tags, fused parts or gaps): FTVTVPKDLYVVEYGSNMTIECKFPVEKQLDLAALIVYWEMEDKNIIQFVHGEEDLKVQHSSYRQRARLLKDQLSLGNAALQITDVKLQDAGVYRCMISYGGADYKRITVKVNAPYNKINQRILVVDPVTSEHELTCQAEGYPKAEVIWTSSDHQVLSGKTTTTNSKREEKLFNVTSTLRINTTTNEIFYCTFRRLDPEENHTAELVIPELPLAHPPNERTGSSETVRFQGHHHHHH
Procedure, shortened: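 Interaction of Fc-tagged soluble PD-1 with His-tagged soluble PD-L1 is monitored by time-resolved FRET. Donor is europium cryptate anti-Ig (1 nM final) and acceptor is APC anti-His (20 nM final). Assay buffer is dPBS with 0.1% BSA and 0.05% Tween-20.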

[2] = cell binding assay, cell line not given, cluster symbol, read-out: CBA IC50 cluster
[3] = cluster symbol, read-out: HTRF IC50 cluster
[4] = cluster symbol, cell line of CBA not given (LK35.2-hPD-L1 or 293T-hPD-L1), read-out: CBA IC50 cluster

| SMILES | IC50 [1, 2] | IC50 (Human PD-L1/PD-1; [3]) | IC50 [1, 4] | IC50 ([1]; cell line of CBA not given (LK35.2-hPD-L1 or 293T-hPD-L1), read-out: CBA IC50 value) | IC50 (Human PD-L1/PD-1; read-out: HTRF IC50 value) |
| --- | --- | --- | --- | --- | --- |
| CCCC[C@H]1C(=O)N(C)[C@@H](CCCC)C(=O)N[C@@H](CN)C(=O)N[C@H](C(=O)NCC(N)=O)CSCC(=O)N[C@@H](Cc2ccccc2)C(=O)N(C)[C@@H](C)C(=O)N[C@@H](CC(N)=O)C(=O)N2CCC[C@H]2C(=O)N[C@@H](Cc2cnc[nH]2)C(=O)N[C@@H](CC(C)C)C(=O)N(C)CC(=O)N[C@@H](Cc2c[nH]c3ccccc23)C(=O)N[C@@H](CO)C(=O)N[C@@H](Cc2c[nH]c3ccccc23)C(=O)N1C [Example 5007] ({CH2CO}-F[NMeA]NPHL[Sar]WSW[NMeNle][NMeNle][Dap]CG-NH2; thioether N-14) | 4.78 to 72.9 nM | 6.76 to 30.3 nM | – | – | – |
| CCCC[C@H]1C(=O)N(C)[C@@H](CCCC)C(=O)N[C@@H](CCCN)C(=O)N[C@H](C(=O)NCC(N)=O)CSCC(=O)N[C@@H](Cc2ccc(O)cc2)C(=O)N(C)[C@@H](C)C(=O)N[C@@H](CC(N)=O)C(=O)N2CCC[C@H]2C(=O)N[C@@H](CN)C(=O)N[C@@H](CC(C)C)C(=O)N2C[C@H](c3ccccc3)C[C@H]2C(=O)N[C@@H](Cc2c[nH]c3ccccc23)C(=O)N[C@@H](CO)C(=O)N[C@@H](Cc2c[nH]c3ccccc23)C(=O)N1C [Example 14001] ({CH2CO}-Y[NMeA]NP[Dap]L[Pro(trans-4-Ph)]WSW[NMeNle][NMeNle][Orn]CG-NH2; thioether N-14) | 0.158 to 4.71 nM | 0.385 to 6.74 nM | – | – | – |
| CCCC[C@H]1C(=O)N(C)[C@@H](CCCC)C(=O)N[C@@H](CCCN)C(=O)N[C@H](C(=O)NCC(N)=O)CSCC(=O)N[C@@H](Cc2ccc(O)cc2)C(=O)N(C)[C@@H](C)C(=O)N[C@@H](CC(N)=O)C(=O)N2CCC[C@H]2C(=O)N[C@@H](CN)C(=O)N[C@@H](CCC(=O)O)C(=O)N2C[C@H](O)C[C@H]2C(=O)N[C@@H](Cc2c[nH]c3ccccc23)C(=O)N[C@@H](CCN)C(=O)N[C@@H](Cc2csc3ccccc23)C(=O)N1C [Example 1185] ({CH2CO}-Y[NMeA]NP[Dap]E[Hyp]W[Dab][Bta][NMeNle][NMeNle][Orn]CG-NH2; thioether N-14) | – | 0.385 to 6.74 nM | 0.158 to 4.71 nM | – | – |
| CCCC[C@H]1C(=O)N(C)CC(=O)N[C@@H](CC(=O)O)C(=O)N[C@@H](C(C)C)C(=O)N(C)[C@@H](Cc2ccccc2)C(=O)N[C@@H](Cc2ccc(O)cc2)C(=O)N(C)CC(=O)N[C@@H](Cc2ccc(Cl)cc2)C(=O)N[C@@H](Cc2ccc(O)cc2)C(=O)N[C@@H](CC(C)C)C(=O)N[C@H](C(=O)NCC(N)=O)CSCC(=O)N[C@@H](Cc2ccccc2)C(=O)N(C)[C@@H](Cc2ccccc2)C(=O)N1C [Example 3546] ({CH2CO}-F[NMeF][NMeNle][Sar]DV[NMeF]Y[Sar][Phe(4-Cl)]YLCG-NH2; thioether N-13) | > 74.3 nM | > 30.5 nM | – | – | – |
| CCCC[C@H]1C(=O)N(C)CC(=O)N[C@@H](CC(=O)O)C(=O)N[C@@H](C(C)C)C(=O)N(C)[C@@H](Cc2ccccc2)C(=O)N[C@@H](Cc2ccc(O)cc2)C(=O)N(C)CC(=O)N[C@@H](Cc2c[nH]c3ccccc23)C(=O)N[C@@H](Cc2ccc(O)cc2)C(=O)N[C@@H](CC(C)C)C(=O)N[C@H](C(=O)NCC(N)=O)CSCC(=O)N[C@@H](Cc2ccc(C(F)(F)F)cc2)C(=O)N(C)[C@@H](Cc2ccccc2)C(=O)N1C [Example 3093] ({CH2CO}-[Phe(4-CF3)][NMeF][NMeNle][Sar]DV[NMeF]Y[Sar]WYLCG-NH2; thioether N-13) | – | > 30.5 nM | 4.78 to 72.9 nM | – | – |
| CCCC[C@H]1C(=O)N(C)[C@@H](CCCC)C(=O)N[C@@H](CC(C)C)C(=O)N[C@H](C(=O)NCC(N)=O)CSCC(=O)N[C@@H](Cc2ccc(O)cc2)C(=O)N(C)[C@@H](C)C(=O)N[C@@H](CC(N)=O)C(=O)N2CCC[C@H]2C(=O)N[C@@H](Cc2cnc[nH]2)C(=O)N[C@@H](CCC(=O)O)C(=O)N2C[C@H](O)C[C@H]2C(=O)N[C@@H](Cc2csc3ccccc23)C(=O)N[C@@H](CCN)C(=O)N[C@@H](Cc2c[nH]c3ccccc23)C(=O)N1C [Example 5051] ({CH2CO}-Y[NMeA]NPHE[Hyp][Bta][Dab]W[NMeNle][NMeNle]LCG-NH2; thioether N-14) | > 74.3 nM | > 30.5 nM | – | – | – |
| CCCC[C@H]1C(=O)N(C)[C@@H](CCCC)C(=O)NC(CCCNC(=N)N)C(=O)N[C@H](C(=O)NCC(N)=O)CSCC(=O)N[C@@H](Cc2ccc(O)cc2)C(=O)N(C)[C@@H](C)C(=O)N[C@@H](CC(N)=O)C(=O)N2CCC[C@H]2C(=O)N[C@@H](CN)C(=O)N[C@@H](CC(C)C)C(=O)N2CCC[C@H]2C(=O)N[C@@H](Cc2c[nH]c3ccccc23)C(=O)N[C@@H](CO)C(=O)N[C@@H](Cc2c(-c3ccc(OC)cc3)[nH]c3ccccc23)C(=O)N1C (some centres unmarked) [Example 7008] ({CH2CO}-Y[NMeA]NP[Dap]LPWS[X7][NMeNle][NMeNle][ξR]CG-NH2; thioether N-14) | 0.158 to 4.71 nM | 0.385 to 6.74 nM | – | – | – |
| CCCC[C@H]1C(=O)N(C)[C@@H](CCCC)C(=O)N[C@@H](CCCNC(=N)N)C(=O)N[C@H](C(=O)NCC(N)=O)CSCC(=O)N[C@@H](Cc2cccc(C#N)c2)C(=O)N(C)[C@@H](C)C(=O)N[C@@H](CC(N)=O)C(=O)N2CCC[C@H]2C(=O)N[C@@H](Cc2cnc[nH]2)C(=O)N[C@@H](CC(C)C)C(=O)N2C[C@H](O)C[C@H]2C(=O)N[C@@H](Cc2c[nH]c3ccccc23)C(=O)N[C@@H](CO)C(=O)N[C@@H](Cc2c[nH]c3ccccc23)C(=O)N1C [Example 7058] ({CH2CO}-[Phe(3-CN)][NMeA]NPHL[Hyp]WSW[NMeNle][NMeNle]RCG-NH2; thioether N-14) | > 74.3 nM | 6.76 to 30.3 nM | – | – | – |
| CCCC[C@H]1C(=O)N2C[C@@H](O)C[C@@H]2C(=O)N[C@@H](CC(=O)O)C(=O)N[C@@H](C(C)C)C(=O)N(C)[C@@H](Cc2ccccc2)C(=O)N[C@@H](Cc2ccc(O)cc2)C(=O)N(C)CC(=O)N[C@@H](Cc2c[nH]c3ccccc23)C(=O)N[C@@H](Cc2ccc(O)cc2)C(=O)N[C@@H](CC(C)C)C(=O)N[C@H](C(=O)NCC(N)=O)CSCC(=O)N[C@@H](Cc2ccccc2)C(=O)N(C)[C@@H](Cc2ccccc2)C(=O)N1C [Example 3588] ({CH2CO}-F[NMeF][NMeNle][dHyp]DV[NMeF]Y[Sar]WYLCG-NH2; thioether N-13) | 0.158 to 4.71 nM | 6.76 to 30.3 nM | – | – | – |
| CCCC[C@H]1C(=O)N(C)CC(=O)N[C@@H](CC(=O)O)C(=O)N[C@@H](C(C)C)C(=O)N(C)[C@@H](Cc2ccccc2)C(=O)N[C@@H](Cc2ccc(O)cc2)C(=O)N(C)CC(=O)N[C@@H](Cc2c[nH]c3ccc(O)cc23)C(=O)N[C@@H](Cc2ccc(O)cc2)C(=O)N[C@@H](CC(C)C)C(=O)N[C@H](C(=O)NCC(N)=O)CSCC(=O)N[C@@H](Cc2ccccc2)C(=O)N(C)[C@@H](Cc2ccccc2)C(=O)N1C [Example 3147] ({CH2CO}-F[NMeF][NMeNle][Sar]DV[NMeF]Y[Sar][Trp(5-OH)]YLCG-NH2; thioether N-13) | – | – | – | 1730 nM | 750 nM |
| CCCC[C@H]1C(=O)N(C)[C@@H](CCCC)C(=O)N[C@@H](C)C(=O)N[C@H](C(=O)NCC(N)=O)CSCC(=O)N[C@@H](Cc2ccc(O)cc2)C(=O)N(C)[C@@H](C)C(=O)N[C@@H](CCC(=O)O)C(=O)N2CCC[C@H]2C(=O)N[C@@H](Cc2cnc[nH]2)C(=O)N[C@@H](CC(C)C)C(=O)N2CCC[C@H]2C(=O)N[C@@H](Cc2c[nH]c3ccccc23)C(=O)N[C@@H](CO)C(=O)N[C@@H](Cc2c[nH]c3ccccc23)C(=O)N1C [Example 1164] ({CH2CO}-Y[NMeA]EPHLPWSW[NMeNle][NMeNle]ACG-NH2; thioether N-14) | – | 6.76 to 30.3 nM | 4.78 to 72.9 nM | – | – |
| CCCC[C@H]1C(=O)N(C)[C@@H](CCCC)C(=O)N[C@@H](CCCNC(=N)N)C(=O)N[C@H](C(=O)NCC(N)=O)CSCC(=O)N[C@@H](Cc2ccccc2)C(=O)N(C)[C@@H](C)C(=O)N[C@@H](CC(N)=O)C(=O)N2CCC[C@H]2C(=O)N[C@@H](Cc2cnc[nH]2)C(=O)N[C@@H](Cc2ccc(O)cc2)C(=O)N(C)CC(=O)N[C@@H](Cc2c[nH]c3ccccc23)C(=O)N[C@@H](CO)C(=O)N[C@@H](Cc2c[nH]c3ccccc23)C(=O)N1C [Example 6014] ({CH2CO}-F[NMeA]NPHY[Sar]WSW[NMeNle][NMeNle]RCG-NH2; thioether N-14) | 4.78 to 72.9 nM | 6.76 to 30.3 nM | – | – | – |
| CCCC[C@H]1C(=O)N(C)CC(=O)N[C@@H](CC(=O)O)C(=O)N[C@@H](CC(C)C)C(=O)N(C)[C@@H](Cc2ccccc2)C(=O)N[C@@H](Cc2ccc(O)cc2)C(=O)N(C)CC(=O)N[C@@H](Cc2c[nH]c3ccccc23)C(=O)N[C@@H](Cc2ccc(O)cc2)C(=O)N[C@@H](CC(C)C)C(=O)N[C@H](C(=O)NCC(N)=O)CSCC(=O)N[C@@H](Cc2ccccc2)C(=O)N(C)[C@@H](Cc2ccccc2)C(=O)N1C [Example 3529] (HELM PEPTIDE1{[O=C(C[*:3])[*:2]].F.[meF].[CCCC[C@@H](C(=O)[*:2])N(C)[*:1]].[Sar].D.L.[meF].Y.[Sar].W.Y.L.C.G.[am]}$PEPTIDE1,PEPTIDE1,1:R3-14:R3$$$V2.0) | 4.78 to 72.9 nM | > 30.5 nM | – | – | – |
